The values that follow come from article PMC6829050 (European journal of medicinal chemistry, 2019).

The first assay has as its target T1, ChTS (Cryptosporidium parvum, UniProt Q27552).
T1 sequence (Q27552 1-521): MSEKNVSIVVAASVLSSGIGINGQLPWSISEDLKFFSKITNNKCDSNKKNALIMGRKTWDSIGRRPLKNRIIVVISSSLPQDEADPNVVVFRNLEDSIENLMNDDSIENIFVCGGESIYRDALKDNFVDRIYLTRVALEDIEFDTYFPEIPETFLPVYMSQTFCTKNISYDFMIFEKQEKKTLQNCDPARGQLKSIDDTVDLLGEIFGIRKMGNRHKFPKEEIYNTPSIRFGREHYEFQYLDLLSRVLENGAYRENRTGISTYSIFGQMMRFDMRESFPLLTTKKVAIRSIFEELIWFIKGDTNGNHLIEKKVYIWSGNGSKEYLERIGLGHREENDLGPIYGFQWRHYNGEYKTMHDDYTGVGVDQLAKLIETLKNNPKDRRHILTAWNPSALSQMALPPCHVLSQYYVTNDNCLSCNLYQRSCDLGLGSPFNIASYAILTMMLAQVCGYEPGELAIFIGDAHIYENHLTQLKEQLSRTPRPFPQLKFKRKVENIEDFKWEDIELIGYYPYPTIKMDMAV
The format is biochemical. The following applies: ChTS IC50 compared to compound 2.
Turning to `Nc1nc2[nH]cc(Cc3ccc(/C=C/c4ccccc4C(=O)O)cc3)c2c(=O)[nH]1` [Compound 10, (E)-2-(4-((2-amino-4-oxo-4,7-dihydro-3H-pyrrolo[2,3-d]pyrimidin-5-yl)methyl)styryl)benzoic acid], the “loss (decrease) of potency” value is on record as “greater than 5 fold”.

Turning to `COc1cc(C(=O)O)cc(-c2ccc(Cc3c[nH]c4nc(N)[nH]c(=O)c34)cc2)c1` [Compound 27, 4’-((2-amino-4-oxo-4,7-dihydro-3H-pyrrolo[2,3-d]pyrimidin-5-yl)methyl)-5-methoxy-[1,1’-biphenyl]-3-carboxylic acid], the “loss (decrease) of potency” value is given as “greater than 25 fold”.

Consider `Nc1nc2[nH]cc(Cc3ccc(C(=O)NC4CCCCC4C(=O)O)cc3)c2c(=O)[nH]1` (stereo not shown) [Compound 13, 2-(4-((2-amino-4-oxo-4,7-dihydro-3H-pyrrolo[2,3-d]pyrimidin-5-yl)methyl)benzamido)cyclohexan-1-carboxylic acid], for which the “loss (decrease) of potency” value was determined as 3 fold.

As to `COc1ccc(C(=O)O)c(NC(=O)c2ccc(Cc3c[nH]c4nc(N)[nH]c(=O)c34)cc2)c1` [Compound 16, 2-(4-((2-amino-4-oxo-4,7-dihydro-3H-pyrrolo[2,3-d]pyrimidin-5-yl)methyl)benzamido)-4-methoxy benzoic acid], the “loss (decrease) of potency” value was ~ 2.5 fold.

For `Nc1nc2[nH]cc(Cc3ccc(C(=O)Nc4cc(CO)ccc4C(=O)O)cc3)c2c(=O)[nH]1` [Compound 18, 2-(4-((2-amino-4-oxo-4,7-dihydro-3H-pyrrolo[2,3-d]pyrimidin-5-yl)methyl)benzamido)-4-(hydroxymethyl)benzoic acid], the “loss (decrease) of potency” value is ~ 9 fold.

`Nc1nc2[nH]cc(Cc3ccc(C(=O)NCc4ccccc4C(=O)O)cc3)c2c(=O)[nH]1` [Compound 11, 2-((4-((2-amino-4-oxo-4,7-dihydro-3H-pyrrolo[2,3-d]pyrimidin-5-yl)methyl)benzamido)methyl) benzoic acid]: the “loss (decrease) of potency” value worked out at 6 fold.

With `CN(C(=O)c1ccc(Cc2c[nH]c3nc(N)[nH]c(=O)c23)cc1)c1ccccc1C(=O)O` [Compound 9, 2-(4-((2-amino-4-oxo-4,7-dihydro-3H-pyrrolo[2,3-d]pyrimidin-5-yl)methyl)-N-methylbenzamido) benzoic acid], the “loss (decrease) of potency” value is ~ 11 fold.

In the case of `Nc1nc2[nH]cc(Cc3ccc(C(=O)Nc4cccc(C(=O)O)c4)cc3)c2c(=O)[nH]1` [Compound 3, 3-(4-((2-amino-4-oxo-4,7-dihydro-3H-pyrrolo[2,3-d]pyrimidin-5-yl)methyl)benzamido)benzoic acid], the “loss (decrease) of potency” value was ~ 5 fold.

Regarding `COCc1cccc(C(=O)O)c1NC(=O)c1ccc(Cc2c[nH]c3nc(N)[nH]c(=O)c23)cc1` [Compound 21, 2-(4-((2-amino-4-oxo-4,7-dihydro-3H-pyrrolo[2,3-d]pyrimidin-5-yl)methyl)benzamido)-3-(methoxymethyl)benzoic acid], the “loss (decrease) of potency” value was “greater than 5 fold”.

On to `COCc1ccc(C(=O)O)c(NC(=O)c2ccc(Cc3c[nH]c4nc(N)[nH]c(=O)c34)cc2)c1` [Compound 19, 2-(4-((2-amino-4-oxo-4,7-dihydro-3H-pyrrolo[2,3-d]pyrimidin-5-yl)methyl)benzamido)-4-(methoxymethyl)benzoic acid], for which the “loss (decrease) of potency” value is given as ~ 3.5 fold.

In the case of `Nc1nc2[nH]cc(Cc3ccc(C(=O)Nc4ccccc4CCC(=O)O)cc3)c2c(=O)[nH]1` [Compound 6, 3-(2-(4-((2-amino-4-oxo-4,7-dihydro-3H-pyrrolo[2,3-d]pyrimidin-5-yl)methyl)benzamido)phenyl) propanoic acid], the “loss (decrease) of potency” value was ~ 6 fold.

Turning to `Nc1nc2[nH]cc(Cc3ccc(C(=O)N4CCCCC4C(=O)O)cc3)c2c(=O)[nH]1` (stereo not shown) [Compound 12, 1-(4-((2-amino-4-oxo-4,7-dihydro-3H-pyrrolo[2,3-d]pyrimidin-5-yl)methyl)benzoyl) piperidine-2-carboxylic acid], the “loss (decrease) of potency” value was “greater than 25 fold”.

Consider `COc1ccc(NC(=O)c2ccc(Cc3c[nH]c4nc(N)[nH]c(=O)c34)cc2)c(C(=O)O)c1` [Compound 22, 2-(4-((2-amino-4-oxo-4,7-dihydro-3H-pyrrolo[2,3-d]pyrimidin-5-yl)methyl)benzamido)-5-methoxybenzoic acid], for which the “loss (decrease) of potency” value is listed as “greater than 5 fold”.

Consider `Nc1nc2[nH]cc(Cc3ccc(C(=O)Nc4ccc(C(=O)O)cc4)cc3)c2c(=O)[nH]1` [Compound 4, 4-(4-((2-amino-4-oxo-4,7-dihydro-3H-pyrrolo[2,3-d]pyrimidin-5-yl)methyl)benzamido)benzoic acid], for which the “loss (decrease) of potency” value is recorded as ~ 5 fold.

For the compound `COCCOc1cc(OC)cc(-c2ccc(Cc3c[nH]c4nc(N)[nH]c(=O)c34)cc2)c1` [Compound 26, 2-amino-5-((3’-methoxy-5’-(2-methoxyethoxy)-[1,1’-biphenyl]-4-yl)methyl)-3,7-dihydro-4H-pyrrolo [2,3-d]pyrimidin-4-one], the “loss (decrease) of potency” value is recorded as ~ 5 fold.

Consider `N#Cc1ccc(C(=O)O)c(NC(=O)c2ccc(Cc3c[nH]c4nc(N)[nH]c(=O)c34)cc2)c1` [Compound 17, 2-(4-((2-amino-4-oxo-4,7-dihydro-3H-pyrrolo[2,3-d]pyrimidin-5-yl)methyl)benzamido)-4-cyanobenzoic acid], for which the “increase (enhancement) in potency” value stood at 2 fold.

Still in this assay, the particulars now being: compared to compound 2.
`Nc1nc2[nH]cc(Cc3ccc(C(=O)Nc4ccccc4CC(=O)O)cc3)c2c(=O)[nH]1` [Compound 5, 2-(2-(4-((2-amino-4-oxo-4,7-dihydro-3H-pyrrolo[2,3-d]pyrimidin-5-yl)methyl)benzamido)phenyl) acetic acid]: the “change in ChTS potency (in words)” value was “small increase in potency”.

On to `Nc1nc2[nH]cc(Cc3ccc(C(=O)Nc4cc(Cl)ccc4C(=O)O)cc3)c2c(=O)[nH]1` [Compound 14, 2-(4-((2-amino-4-oxo-4,7-dihydro-3H-pyrrolo[2,3-d]pyrimidin-5-yl)methyl)benzamido)-4-chloro benzoic acid], for which the “change in ChTS potency (in words)” value is given as “small loss of potency”.

For another assay, the system named is ChTS over the hTS enzyme. The conditions noted are these: inhibition activity; cited from earlier work.
As for “2-amino-4-oxo-4,7-dihydro-pyrrolo[2,3-d]pyrimidin-methyl-phenyl-L-glutamic acid [Compound 1]”, the “selectivity for the ChTS over the hTS enzyme” value is 6 fold.
